Assay results taken from PubChem BioAssay AID330 (DTP/NCI, 2004).
Several values for one entry are separate records, joined by “and”; a condition that tells them apart may be missing. Equal values may be shown once. Inconclusive results and toxic doses are left out.

Test system: P388 leukemia ip, CD2F1 mice, survival T/C
Test: NCI In Vivo Anticancer Drug Screen. Data for tumor model P388 Leukemia (intraperitoneal) in CD2F1 (CDF1) mice
Conditions: endpoint: median survival time, higher = longer survival
How it was run: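 Mice carrying the transplanted tumor received test compound or vehicle. Survival was recorded in each group, and the value is the treated-group measurement divided by that of the vehicle-treated control group.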

[1] = dose: 50.0 mg/kg/injection, schedule: Q01DX005 (ip), vehicle: Klucel (hydroxypropylcellulose) (HPC)
[2] = dose: 100.0 mg/kg/injection, schedule: Q01DX005 (ip), vehicle: Klucel (hydroxypropylcellulose) (HPC)
[3] = dose: 200.0 mg/kg/injection, schedule: Q01DX005 (ip), vehicle: Klucel (hydroxypropylcellulose) (HPC)
[4] = dose: 50.0 mg/kg/injection, schedule: Q01DX009 (ip), vehicle: Klucel (hydroxypropylcellulose) (HPC)
[5] = dose: 100.0 mg/kg/injection, schedule: Q01DX009 (ip), vehicle: Klucel (hydroxypropylcellulose) (HPC)
[6] = dose: 200.0 mg/kg/injection, schedule: Q01DX009 (ip), vehicle: Klucel (hydroxypropylcellulose) (HPC)
[7] = dose: 50.0 mg/kg/injection, schedule: Q01DX005 (ip), vehicle: saline with Tween-80
[8] = dose: 100.0 mg/kg/injection, schedule: Q01DX005 (ip), vehicle: saline with Tween-80
[9] = dose: 100.0 mg/kg/injection, schedule: Q04DX002 (ip), vehicle: Klucel (hydroxypropylcellulose) (HPC)

Question: CC1(C)N(/N=C/c2ccccc2)C(c2ccccc2)C(c2ccccc2)N1/N=C/c1ccccc1 (configuration not stated) was tested. Which T/C [1] did it give?
Answer: 86 % of control

Question: And the T/C [2]?
Answer: 89 % of control

Question: What about the T/C [3] of the same molecule?
Answer: 87 % of control

Question: For CCOc1ccc(Nc2ncnc3nc[nH]c23)cc1CN(CCCl)CCCl, which T/C (dose: 0.88 mg/kg/injection, schedule: Q01DX009 (ip), vehicle: saline) is on record?
Answer: 154 % of control

Question: What about the T/C (dose: 2.0 mg/kg/injection, schedule: Q01DX009 (ip), vehicle: saline) of the same molecule?
Answer: 159 % of control

Question: What about the T/C (dose: 3.0 mg/kg/injection, schedule: Q01DX009 (ip), vehicle: saline) of the same molecule?
Answer: 122 % of control

Question: Which T/C (dose: 60.0 mg/kg/injection, schedule: Q01DX005 (ip), vehicle: Klucel (hydroxypropylcellulose) (HPC)) does the source give for Cc1cc(Cl)c2cc3c(cc2n1)CCCC3 here?
Answer: 102 % of control

Question: And the T/C (dose: 120.0 mg/kg/injection, schedule: Q01DX005 (ip), vehicle: Klucel (hydroxypropylcellulose) (HPC))?
Answer: 109 % of control

Question: For Cc1ccc(C23c4ccccc4CCN2C(=O)C3N)cc1 (configuration not stated), which T/C [1] is on record?
Answer: 99 % of control

Question: What about the T/C [2] of the same molecule?
Answer: 106 % of control

Question: What about the T/C [3] of the same molecule?
Answer: 93 % of control

Question: Which T/C (dose: 25.0 mg/kg/injection, schedule: Q01DX009 (ip), vehicle: Klucel (hydroxypropylcellulose) (HPC)) does the source give for S=c1[nH][nH]c(=S)s1 here?
Answer: 95 % of control

Question: And the T/C [4]?
Answer: 95 % of control

Question: COC(=O)C1=C2Nc3ccccc3C23CCN2C(O)C4(CC5CC67CCOC6CCN6CCC8(c9cccc(OC)c9N(C4)C58O)C67)C4OCCC4(C1)C23 (configuration not stated) was tested. Which T/C (dose: 3.12 mg/kg/injection, schedule: Q01DX005 (ip), vehicle: Klucel (hydroxypropylcellulose) (HPC)) did it give?
Answer: 96 % of control

Question: What about the T/C (dose: 6.25 mg/kg/injection, schedule: Q01DX005 (ip), vehicle: Klucel (hydroxypropylcellulose) (HPC)) of the same molecule?
Answer: 99 % of control

Question: What about the T/C (dose: 12.5 mg/kg/injection, schedule: Q01DX005 (ip), vehicle: Klucel (hydroxypropylcellulose) (HPC)) of the same molecule?
Answer: 99 % of control

Question: What about the T/C (dose: 25.0 mg/kg/injection, schedule: Q01DX005 (ip), vehicle: Klucel (hydroxypropylcellulose) (HPC)) of the same molecule?
Answer: 87 % of control and 89 % of control

Question: How did the T/C (dose: 0.5 mg/kg/injection, schedule: Q01DX009 (ip), vehicle: water) turn out when COc1cccc2c1C(=O)c1c(OC)c3c(c(OC)c1C2=O)C[C@@](O)(C(C)=O)C[C@@H]3OC1CC(N)C(O)C(C)O1 (some centres not stated) was run?
Answer: 103 % of control

Question: And the T/C (dose: 1.0 mg/kg/injection, schedule: Q01DX009 (ip), vehicle: water)?
Answer: 110 % of control

Question: And the T/C (dose: 2.0 mg/kg/injection, schedule: Q01DX009 (ip), vehicle: water)?
Answer: 102 % of control

Question: And the T/C (dose: 4.0 mg/kg/injection, schedule: Q01DX009 (ip), vehicle: water)?
Answer: 106 % of control

Question: What about the T/C (dose: 8.0 mg/kg/injection, schedule: Q01DX009 (ip), vehicle: water) of the same molecule?
Answer: 114 % of control and 119 % of control

Question: What about the T/C (dose: 16.0 mg/kg/injection, schedule: Q01DX009 (ip), vehicle: water) of the same molecule?
Answer: 111 % of control and 123 % of control

Question: What about the T/C (dose: 128.0 mg/kg/injection, schedule: Q01DX009 (ip), vehicle: water) of the same molecule?
Answer: 169 % of control

Question: Which results are given for COc1ccc(CCN2C(=O)C(=O)N(C3CCCCC3)C2=O)cc1OC?
Answer: T/C [4]: 93 % of control; T/C [5]: 95 % of control; T/C [6]: 100 % of control

Question: Which T/C [1] does the source give for CCCCCCCCCCOc1cc2c(=O)c(C(=O)OCC)c[nH]c2cc1OCC here?
Answer: 102 % of control

Question: And the T/C [2]?
Answer: 98 % of control

Question: And the T/C [3]?
Answer: 108 % of control

Question: What does the source list for C=CC[S+]1CCCCC1C=C (configuration not stated)?
Answer: T/C (dose: 100.0 mg/kg/injection, schedule: Q01DX001 (ip), vehicle: saline with Tween-80): 94 % of control; T/C (dose: 200.0 mg/kg/injection, schedule: Q01DX001 (ip), vehicle: saline with Tween-80): 95 % of control; T/C (dose: 400.0 mg/kg/injection, schedule: Q01DX001 (ip), vehicle: saline with Tween-80): 95 % of control

Question: Which results are given for N=C(N)c1ccc2cc(/C=C/c3cc4ccc(C(=N)N)cc4o3)[nH]c2c1?
Answer: T/C (dose: 50.0 mg/kg/injection, schedule: Q04DX003 (ip), vehicle: saline): 157 % of control; T/C (dose: 50.0 mg/kg/injection, schedule: Q04DX003 (ip), vehicle: suspension in saline): 208 % of control

Question: Which results are given for O=[N+]([O-])c1cc2[nH]cnc2c([N+](=O)[O-])c1Nc1ccccc1?
Answer: T/C (dose: 100.0 mg/kg/injection, schedule: Q04DX003 (ip), vehicle: saline with Tween-80): 102 % of control; T/C (dose: 200.0 mg/kg/injection, schedule: Q04DX003 (ip), vehicle: saline with Tween-80): 93 % of control; T/C (dose: 400.0 mg/kg/injection, schedule: Q04DX003 (ip), vehicle: saline with Tween-80): 101 % of control

Question: With COC(=O)Nc1cn2nc(C)sc2n1 as the molecule, how does the T/C (dose: 60.0 mg/kg/injection, schedule: Q01DX005 (ip), vehicle: saline with Tween-80) read?
Answer: 99 % of control

Question: What about the T/C (dose: 120.0 mg/kg/injection, schedule: Q01DX005 (ip), vehicle: saline with Tween-80) of the same molecule?
Answer: 94 % of control

Question: And the T/C (dose: 240.0 mg/kg/injection, schedule: Q01DX005 (ip), vehicle: saline with Tween-80)?
Answer: 91 % of control

Question: Cn1cc2c(=O)n(C)ncc2n1 was tested. Which T/C (dose: 60.0 mg/kg/injection, schedule: Q01DX005 (ip), vehicle: saline) did it give?
Answer: 100 % of control

Question: What about the T/C (dose: 120.0 mg/kg/injection, schedule: Q01DX005 (ip), vehicle: saline) of the same molecule?
Answer: 109 % of control

Question: What about the T/C (dose: 240.0 mg/kg/injection, schedule: Q01DX005 (ip), vehicle: saline) of the same molecule?
Answer: 100 % of control

Question: Which T/C [7] does the source give for O=S(=O)(F)c1ncnc2nc[nH]c12 here?
Answer: 93 % of control

Question: And the T/C [8]?
Answer: 103 % of control

Question: And the T/C (dose: 200.0 mg/kg/injection, schedule: Q01DX005 (ip), vehicle: saline with Tween-80)?
Answer: 112 % of control

Question: How did the T/C (dose: 3.12 mg/kg/injection, schedule: Q04DX002 (ip), vehicle: saline with Tween-80) turn out when CN=C(N)N/N=C(\C)c1ccc2c(c1)-c1ccc(/C(C)=N/NC(N)=NC)c3cccc-2c13 was run?
Answer: 104 % of control

Question: And the T/C (dose: 6.25 mg/kg/injection, schedule: Q04DX002 (ip), vehicle: saline with Tween-80)?
Answer: 99 % of control

Question: What about the T/C (dose: 12.5 mg/kg/injection, schedule: Q04DX002 (ip), vehicle: saline with Tween-80) of the same molecule?
Answer: 100 % of control

Question: How did the T/C [9] turn out when CNC(=S)N/N=C(C)/C=C/c1ccc(OC)cc1 was run?
Answer: 104 % of control

Question: What about the T/C (dose: 200.0 mg/kg/injection, schedule: Q04DX002 (ip), vehicle: Klucel (hydroxypropylcellulose) (HPC)) of the same molecule?
Answer: 100 % of control

Question: And the T/C (dose: 400.0 mg/kg/injection, schedule: Q04DX002 (ip), vehicle: Klucel (hydroxypropylcellulose) (HPC))?
Answer: 91 % of control

Question: CC(C)C1CC(N(C)C)=CC(=S)N1 (configuration not stated) was tested. Which T/C [1] did it give?
Answer: 106 % of control

Question: What about the T/C [2] of the same molecule?
Answer: 110 % of control

Question: And the T/C (dose: 100.0 mg/kg/injection, schedule: Q01DX005 (ip), vehicle: saline)?
Answer: 93 % of control

Question: And the T/C (dose: 200.0 mg/kg/injection, schedule: Q01DX005 (ip), vehicle: saline)?
Answer: 102 % of control

Question: What does the source list for COc1ccc(/C=N\S(=O)(=O)c2ccc(OC)cc2)cc1?
Answer: T/C [4]: 111 % of control; T/C [5]: 102 % of control; T/C [6]: 95 % of control

Question: How did the T/C (dose: 12.5 mg/kg/injection, schedule: Q01DX009 (ip), vehicle: other) turn out when CC1(C)C2CCC(CN)C1C2 (configuration not stated) was run?
Answer: 96 % of control

Question: What about the T/C (dose: 25.0 mg/kg/injection, schedule: Q01DX009 (ip), vehicle: other) of the same molecule?
Answer: 97 % of control

Question: And the T/C (dose: 50.0 mg/kg/injection, schedule: Q01DX009 (ip), vehicle: other)?
Answer: 100 % of control

Question: For CC(C)(C)SC(=O)CC1(O)CCCCC1, which T/C (dose: 25.0 mg/kg/injection, schedule: Q04DX002 (ip), vehicle: Klucel (hydroxypropylcellulose) (HPC)) is on record?
Answer: 98 % of control

Question: What about the T/C (dose: 50.0 mg/kg/injection, schedule: Q04DX002 (ip), vehicle: Klucel (hydroxypropylcellulose) (HPC)) of the same molecule?
Answer: 100 % of control

Question: And the T/C [9]?
Answer: 100 % of control

Question: What does the source list for N#CC1C(C#N)C2(c3ccccc3)C(c3ccccc3)=NN(c3ccccc3)CC12 (configuration not stated)?
Answer: T/C (dose: 25.0 mg/kg/injection, schedule: Q01DX001 (ip), vehicle: Klucel (hydroxypropylcellulose) (HPC)): 91 % of control; T/C (dose: 50.0 mg/kg/injection, schedule: Q01DX001 (ip), vehicle: Klucel (hydroxypropylcellulose) (HPC)): 95 % of control; T/C (dose: 100.0 mg/kg/injection, schedule: Q01DX001 (ip), vehicle: Klucel (hydroxypropylcellulose) (HPC)): 87 % of control

Question: Which T/C [5] does the source give for Oc1ccc(C2C=CCC2)cc1C1C=CCC1 (configuration not stated) here?
Answer: 106 % of control

Question: And the T/C [6]?
Answer: 116 % of control

Question: What about the T/C (dose: 400.0 mg/kg/injection, schedule: Q01DX009 (ip), vehicle: Klucel (hydroxypropylcellulose) (HPC)) of the same molecule?
Answer: 115 % of control

Question: Which results are given for CCNC(=O)N1CC(=O)Nc2ccccc21?
Answer: T/C [7]: 101 % of control; T/C [8]: 96 % of control

Question: Which T/C [1] does the source give for c1cc2cc(-c3ccc4cc(-c5ccc6oc(C7=NCCN7)cc6c5)[nH]c4c3)[nH]c2cc1C1=NCCN1 here?
Answer: 156 % of control

Question: And the T/C [2]?
Answer: 114 % of control

Question: What about the T/C [3] of the same molecule?
Answer: 91 % of control
